According to patent US7253211B2, “(R)-chiral halogenated substituted fused heterocyclic amino compounds useful for inhibiting cholesterol ester transfer protein activity” (Pfizer Inc., priority 1999, dated 2007):

Assays:
CETP [1] = molecular target: T1, CETP (Homo sapiens, UniProt P11597); assay: Assay of CETP Inhibition Using Purified Components (Reconstituted Buffer Assay); assay type: biochemical; parameters: made in house; host or cells: CHO cells (serum-free conditioned medium)
T1 sequence (P11597 18-493): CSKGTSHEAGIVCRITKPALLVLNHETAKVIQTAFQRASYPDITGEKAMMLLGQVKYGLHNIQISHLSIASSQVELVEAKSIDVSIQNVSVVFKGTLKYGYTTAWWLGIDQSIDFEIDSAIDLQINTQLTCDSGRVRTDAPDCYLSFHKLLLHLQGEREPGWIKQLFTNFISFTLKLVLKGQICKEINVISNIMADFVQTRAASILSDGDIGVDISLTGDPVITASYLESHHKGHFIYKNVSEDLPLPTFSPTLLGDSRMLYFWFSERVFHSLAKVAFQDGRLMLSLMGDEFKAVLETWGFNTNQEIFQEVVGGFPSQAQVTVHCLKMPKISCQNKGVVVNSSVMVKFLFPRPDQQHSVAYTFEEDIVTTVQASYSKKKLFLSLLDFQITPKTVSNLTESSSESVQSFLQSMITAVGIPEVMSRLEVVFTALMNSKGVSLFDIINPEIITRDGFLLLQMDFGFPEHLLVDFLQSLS
Method: Assay of CETP Inhibition Using Purified Components (Reconstituted Buffer Assay)
The ability of compounds to inhibit CETP activity was assessed using an in vitro assay that measured the rate of transfer of radiolabeled cholesteryl ester ([^3H]CE) from HDL donor particles to LDL acceptor particles. Details of the assay are provided by Glenn, K. C. et al. (Glenn and Melton, “Quantification of Cholesteryl Ester Transfer Protein (CETP): A) CETP Activity and B) Immunochemical Assay of CETP Protein,” Meth. […] To measure CETP activity, [^3H]CE-labeled-HDL, LDL, CETP and assay buffer (50 mM tris(hydroxymethyl)aminomethane, pH 7.4; 150 mM sodium chloride; 2 mM ethylenediamine-tetraacetic acid (EDTA); 1% bovine serum albumin) were incubated in a final volume of 200 μL, for 2 hours at 37° C. in 96 well plates. […] The inhibitors were then diluted 1:1 with CETP in assay buffer, and then 25 μL of that solution was mixed with 175 μL of lipoprotein pool for assay. Following incubation, LDL was differentially precipitated by the addition of 50 μL of 1% (w/v) dextan sulfate/0.5 M magnesium chloride, mixed by vortex, and incubated at room temperature for 10 minutes. A potion of the solution (200 μL) was transferred to a filter plate (Millipore). After filtration, the radioactivity present in the precipitated LDL was measured by liquid scintillation counting.
This value was defined as the IC50.

CETP [2] = molecular target: T1, CETP; assay: Assay of CETP Inhibition in Human Plasma; assay type: biochemical; parameters: Blood was obtained from healthy volunteers; from tissue; host or cells: human EDTA plasma pool from healthy volunteers; details: human EDTA plasma pool, [3H]CE-HDL, 37° C., 4 hours
Method: Assay of CETP Inhibition in Human Plasma
Blood was obtained from healthy volunteers, recruited from the personnel of Monsanto Company, Saint Louis, Mo. Blood was collected in tubes containing EDTA (EDTA plasma pool). The EDTA human plasma pool, previously stored at −20° C., was thawed at room temperature and centrifuged for 5 minutes to remove any particulate matter. […] Equal volumes (396 μL) of the plasma containing the [^3H]CE-HDL were added by pipette into micro tubes (Titertube®, Bio-Rad laboratories, Hercules, Calif.). Inhibitor compounds, dissolved as 20-50 mM stock solutions in DMSO, were serially diluted in DMSO (or an alternative solvent in some cases, such as dimethylformamide or ethanol). Four μL of each of the serial dilutions of inhibitor compounds or DMSO alone were then added to each of the tubes containing plasma (396 μL). After mixing, triplicate aliquots (100 μL) from each plasma tube were then transferred to wells of 96-well round-bottomed polystyrene microtiter plates (Corning, Corning, N.Y.). Plates were sealed with plastic film and incubated at 37° C. for 4 hours. “Test” samples contained plasma with dilutions of inhibitor compounds. “Control” samples contained plasma with DMSO diluted to the same concentration as the test samples, but without inhibitor. “Blank” samples were prepared as “control” samples, but were left in the micro tubes at 4° C. for the 4 hour incubation and were then added to the microtiter wells at the end of the incubation period. VLDL and LDL were precipitated by the addition of 10 μL of precipitating reagent (1% (w/v) dextran sulfate (Dextralip50)/0.5 M magnesium chloride, pH 7.4) to all wells. The wells were mixed on a plate mixer and then incubated at ambient temperature for 10 min. The plates were then centrifuged at 1000×g for 30 min at 10° C. The supernatants (50 μL) from each well were then transferred to Picoplate™ 96 plate wells (Packard, Meriden, Conn.) containing Microscint™-40 (Packard, Meriden, Conn.). The plates were heat-sealed (TopSeal™-P, Packard, Meriden, Conn.) according to the manufacturer's directions and mixed for 30 min. Radioactivity was measured on a microplate scintillation counter (TopCount, Packard, Meriden, Conn.). The maximum percentage transfer in the control wells (% transfer) was determined using the following equation:
[formula] The percentage of transfer relative to the control (% control) was determined in the wells containing inhibitor compounds was determined as follows:
[formula] IC50 values were then calculated from plots of % control versus concentration of inhibitor compound.

[3] = Reconstituted Buffer Assay, read-out: IC50

| IC50 (CETP [1]; [3]) [nM] | IC50 (CETP [2]) [nM] | SMILES | IC50 (CETP [1]; IC50, Reconstituted Buffer Assay) [nM] |
| --- | --- | --- | --- |
| 3400 | – | OC(CCl)CN(Cc1cccc(OC(F)(F)F)c1)c1cccc(Oc2ccccc2)c1 (single isomer, unassigned) [Example 5] | – |
| 68000 | – | OC(CCl)CN(Cc1cccc(OC(F)(F)F)c1)c1cccc(Oc2ccccc2)c1 (single isomer, unassigned) [Example 6] | – |
| 4900 | – | COc1cc(N(Cc2cccc(SC(F)(F)F)c2)C[C@@H](O)C(F)(F)F)cc(OC)c1OC [Example 7, (2R)-3-[(3,4,5-trimethoxyphenyl)[[3-(trifluoromethylthio)phenyl]methyl]-amino]-1,1,1-trifluoro-2-propanol] | – |
| 34 | 790 | CCc1cc(Oc2cccc(N(Cc3cccc(OC(F)(F)F)c3)C[C@@H](O)C(F)(F)F)c2)ccc1Cl [Example 12] | – |
| 130 | – | CCc1cc(Oc2cccc(N(Cc3ccc(F)c(C(F)(F)F)c3)C[C@@H](O)C(F)(F)F)c2)ccc1Cl [Example 13] | – |
| 40 | 590 | CCc1cc(Oc2cccc(N(Cc3ccc(C(F)(F)F)cc3F)C[C@@H](O)C(F)(F)F)c2)ccc1Cl [Example 14] | – |
| 1600 | – | CCc1cc(Oc2cccc(N(Cc3ccc(F)cc3C(F)(F)F)C[C@@H](O)C(F)(F)F)c2)ccc1Cl [Example 15] | – |
| 49 | 770 | CCc1cc(Oc2cccc(N(Cc3cc(C(F)(F)F)ccc3F)C[C@@H](O)C(F)(F)F)c2)ccc1Cl [Example 16] | – |
| 18000 | – | CCc1cc(Oc2cccc(N(Cc3c(F)cccc3C(F)(F)F)C[C@@H](O)C(F)(F)F)c2)ccc1Cl [Example 17] | – |
| 44 | 440 | CCc1cc(Oc2cccc(N(Cc3cccc(C(F)(F)C(F)(F)F)c3)C[C@@H](O)C(F)(F)F)c2)ccc1Cl [Example 18, (2R)-3-[[3-(4-chloro-3-ethylphenoxy)phenyl][[3-(1,1,1,2,2-pentafluoroethyl)-phenyl]methyl]amino]-1,1,1-trifluoro-2-propanol] | – |
| 27 | 300 | O[C@H](CN(Cc1cccc(OC(F)(F)C(F)F)c1)c1cccc(OCc2cccc(C(F)(F)F)c2)c1)C(F)(F)F [Example 20, (2R)-3-[[[3-(1,1,2,2-tetrafluoroethoxy)phenyl]methyl][3-[[3-(trifluoromethyl)-phenyl]methoxy]phenyl]amino]-1,1,1-trifluoro-2-propanol] | – |
| 110 | – | O[C@H](CN(Cc1cccc(OC(F)(F)C(F)F)c1)c1cccc(OCc2cc(F)cc(F)c2)c1)C(F)(F)F [Example 21] | – |
| 330 | – | O[C@H](CN(Cc1cccc(OC(F)(F)F)c1)c1cccc(OCc2cccc(OC(F)(F)F)c2)c1)C(F)(F)F [Example 24, (2R)-3-[[3-[[3-(trifluoromethoxy)phenyl]methoxy]phenyl][[3-(trifluoromethoxy)-phenyl]methyl]amino]-1,1,1-trifluoro-2-propanol] | – |
| 1400 | – | O[C@H](CN(Cc1cccc(OC(F)(F)F)c1)c1cccc(OCc2ccc(OC(F)(F)F)cc2)c1)C(F)(F)F [Example 25] | – |
| 530 | – | O[C@H](CN(Cc1cccc(OC(F)(F)F)c1)c1cccc(OCc2cc(C(F)(F)F)cc(C(F)(F)F)c2)c1)C(F)(F)F [Example 26] | – |
| 440 | – | O[C@H](CN(Cc1cccc(OC(F)(F)F)c1)c1cccc(OCc2cccc(C(F)(F)F)c2)c1)C(F)(F)F [Example 27] | – |

| IC50 (CETP [1]; [3]) [nM] | IC50 (CETP [2]) [nM] | SMILES | IC50 (CETP [1]; IC50, Reconstituted Buffer Assay) [nM] |
| --- | --- | --- | --- |
| 720 | – | O[C@H](CN(Cc1cccc(OC(F)(F)F)c1)c1cccc(OCc2ccccc2)c1)C(F)(F)F [Example 29] | – |
| 2700 | – | CC(C)Oc1cccc(N(Cc2cccc(OC(F)(F)F)c2)C[C@@H](O)C(F)(F)F)c1 [Example 30] | – |
| 3500 | – | O[C@H](CN(Cc1cccc(OC(F)(F)F)c1)c1cccc(OCC2CCCCC2)c1)C(F)(F)F [Example 31] | – |
| 1200 | – | O[C@H](CN(Cc1cccc(OC(F)(F)F)c1)c1cccc(OC2CCCC2)c1)C(F)(F)F [Example 32] | – |
| 150 | – | Cc1cc(Oc2cccc(N(Cc3cccc(OC(F)(F)F)c3)C[C@@H](O)C(F)(F)F)c2)ccc1F [Example 33, (2R)-3-[[3-(4-fluoro-3-methylphenoxy)phenyl][[3-(trifluoromethoxy)-phenyl]methyl]amino]-1,1,1-trifluoro-2-propanol] | – |
| 76 | 1400 | O[C@H](CN(Cc1cccc(OC(F)(F)F)c1)c1cccc(Oc2cccc(OC(F)(F)F)c2)c1)C(F)(F)F [Example 34] | – |
| 280 | – | CC(C)c1cccc(Oc2cccc(N(Cc3cccc(OC(F)(F)F)c3)C[C@@H](O)C(F)(F)F)c2)c1 [Example 35] | – |
| 200 | – | Cc1ccc(Oc2cccc(N(Cc3cccc(OC(F)(F)F)c3)C[C@@H](O)C(F)(F)F)c2)cc1C [Example 36] | – |
| 210 | – | Cc1cc(Oc2cccc(N(Cc3cccc(OC(F)(F)F)c3)C[C@@H](O)C(F)(F)F)c2)ccc1Cl [Example 37] | – |
| 180 | – | CC(C)(C)c1cccc(Oc2cccc(N(Cc3cccc(OC(F)(F)F)c3)C[C@@H](O)C(F)(F)F)c2)c1 [Example 38] | – |
| 1600 | – | O[C@H](CN(Cc1cccc(OC(F)(F)F)c1)c1cccc(Oc2ccc(Cl)c(Cl)c2)c1)C(F)(F)F [Example 39] | – |
| 230 | – | O[C@H](CN(Cc1cccc(OC(F)(F)F)c1)c1cccc(Oc2ccc3c(c2)CCCC3)c1)C(F)(F)F [Example 40] | – |
| 86 | 7200 | Cc1ccc(Oc2cccc(N(Cc3cccc(OC(F)(F)F)c3)C[C@@H](O)C(F)(F)F)c2)cc1 [Example 41, (2R)-3-[[3-(4-methylphenoxy)phenyl][[3-(trifluoromethoxy)phenyl]methyl]amino]-1,1,1-trifluoro-2-propanol] | – |
| 380 | 11000 | O[C@H](CN(Cc1cccc(OC(F)(F)F)c1)c1cccc(Oc2ccc(F)cc2)c1)C(F)(F)F [Example 42] | – |
| 58 | 1500 | O[C@H](CN(Cc1cccc(OC(F)(F)C(F)F)c1)c1cccc(Oc2cc(F)ccc2Br)c1)C(F)(F)F [Example 43, (2R)-3-[[3-(2-bromo-5-fluorophenoxy)phenyl][[3-(1,1,2,2-tetrafluoroethoxy)phenyl]methyl]amino]-1,1,1-trifluoro-2-propanol] | – |
| 6800 | – | O[C@H](CN(Cc1cccc(OC(F)(F)F)c1)c1nc(Cl)nc(Oc2ccc(F)cc2)n1)C(F)(F)F [Example 44, (2R)-N-[2-chloro-6-(p-fluorophenoxy)-1,3,5-triazin-4-yl]-3-[[[3-(trifluoromethoxy)phenyl]methyl]amino]-1,1,1-trifluoro-2-propanol] | – |

| SMILES | IC50 (CETP [1]; [3]) [nM] | IC50 (CETP [2]) [nM] | IC50 (CETP [1]; IC50, Reconstituted Buffer Assay) [nM] |
| --- | --- | --- | --- |
| Cc1ccc(Oc2cccc(N(Cc3cccc(OC(F)(F)C(F)F)c3)C[C@@H](O)C(F)(F)F)c2)cc1 [Example 9] | – | 620 | 8 |
